Reference: patent US11173151B2, “Substituted triazole derivatives and uses thereof” (BAYER AKTIENGESELLSCHAFT, priority 2017, dated 2021)
Where two headings read alike, the source gives them in different places.

Legend:
[1] = target: T1, human V2 receptor (Homo sapiens, UniProt P30518); assay: Cellular in vitro assay for determining vasopressin receptor activity, V2 receptor cell line (CHO, CRE-luciferase); assay type: cell-based; conditions: CHO cell line transfected with human V2 receptor, [Arg8]-vasopressin at EC50 concentration, read-out: IC50 hV2
T1 construct: expressed in transfected cells; host or cells: CHO K1 (ATCC) expressing firefly luciferase under a CRE-responsive promoter

[2] = target: T2, human V1a receptor (Homo sapiens, UniProt P37288); assay: Cellular in vitro assay for determining vasopressin receptor activity, V1a receptor cell line (CHO, aequorin luminescence); assay type: cell-based; conditions: for IC50: CHO cell line transfected with human V1a receptor, [Arg]-vasopressin at EC50 concentration, read-out: IC50 hV1a; for ratio IC50 hV2/hV1a: selectivity ratio IC50 hV2 / IC50 hV1a
T2 construct: expressed in transfected cells; host or cells: CHO K1 (ATCC), also stably transfected with a modified aequorin
How it was run: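 Cells were plated the day before in medium containing 5 μg/ml coelenterazine and kept at 37° C. Compounds at various concentrations were then added for 10 minutes. Next, [Arg]-vasopressin at EC50 was applied and light output recorded at once, yielding IC50.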

T2 sequence (P37288 whole entry): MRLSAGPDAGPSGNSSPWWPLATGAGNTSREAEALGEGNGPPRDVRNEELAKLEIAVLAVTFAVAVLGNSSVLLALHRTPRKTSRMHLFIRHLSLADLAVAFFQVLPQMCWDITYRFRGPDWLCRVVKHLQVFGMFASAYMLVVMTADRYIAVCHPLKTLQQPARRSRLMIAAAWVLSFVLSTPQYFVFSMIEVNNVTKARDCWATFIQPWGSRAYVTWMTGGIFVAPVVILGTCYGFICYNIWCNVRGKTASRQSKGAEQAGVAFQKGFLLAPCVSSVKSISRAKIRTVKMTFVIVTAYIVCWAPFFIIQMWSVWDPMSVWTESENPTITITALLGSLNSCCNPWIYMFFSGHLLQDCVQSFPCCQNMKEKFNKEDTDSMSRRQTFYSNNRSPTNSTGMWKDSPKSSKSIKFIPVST
T1 sequence (P30518 whole entry): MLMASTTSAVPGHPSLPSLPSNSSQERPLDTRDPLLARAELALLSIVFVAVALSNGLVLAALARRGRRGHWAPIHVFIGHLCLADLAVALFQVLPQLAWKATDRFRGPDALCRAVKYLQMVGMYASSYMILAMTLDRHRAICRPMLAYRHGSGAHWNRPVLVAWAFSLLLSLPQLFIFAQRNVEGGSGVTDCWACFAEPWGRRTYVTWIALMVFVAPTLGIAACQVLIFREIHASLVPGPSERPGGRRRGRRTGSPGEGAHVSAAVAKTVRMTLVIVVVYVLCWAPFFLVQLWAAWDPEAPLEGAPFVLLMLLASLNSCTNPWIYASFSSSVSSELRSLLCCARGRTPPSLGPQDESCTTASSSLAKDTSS

| IC50 [1] [µM] | IC50 [2] [µM] | ratio IC50 hV2/hV1a [2] | IC50 ([1]; 3 hours) [µM] | SMILES |
| --- | --- | --- | --- | --- |
| 0.125 | 0.019 | 6.6 |  | O=C(NCC(F)(F)F)c1cc(F)ccc1-n1cnc(Cn2nc(-c3ccc(Cl)cc3)n(C[C@H](O)C(F)(F)F)c2=O)n1 [Example 426, 2-[3-({3-(4-Chlorophenyl)-5-oxo-4-[(2S)-3,3,3-trifluoro-2-hydroxypropyl]-4,5-dihydro-1H-1,2,4-triazol-1-yl}methyl)-1H-1,2,4-triazol-1-yl]-5-fluoro-N-(2,2,2-trifluoroethyl)benzamide] |
|  | 0.0055 | 38.2 | 0.21 | NC(=O)CNC(=O)c1ccccc1-n1cnc(Cn2nc(-c3ccc(Cl)cc3)n(C[C@H](O)C(F)(F)F)c2=O)n1 [Example 225, N-(2-Amino-2-oxoethyl)-2-[3-({3-(4-chlorophenyl)-5-oxo-4-[(2S)-3,3,3-trifluoro-2-hydroxypropyl]-4,5-dihydro-1H-1,2,4-triazol-1-yl}methyl)-1H-1,2,4-triazol-1-yl]benzamide] |
|  | 0.00295 | 21.9 | 0.0645 | CC(O)CNC(=O)c1ccccc1-n1cnc(Cn2nc(-c3ccc(Cl)cc3)n(C[C@H](O)C(F)(F)F)c2=O)n1 (mixture of isomers) [Example 292, 2-[3-({3-(4-Chlorophenyl)-5-oxo-4-[(2S)-3,3,3-trifluoro-2-hydroxypropyl]-4,5-dihydro-1H-1,2,4-triazol-1-yl}methyl)-1H-1,2,4-triazol-1-yl]-N-[2-hydroxypropyl]benzamide] |
|  | 0.00205 | 34.4 | 0.0705 | Cc1ccccc1NC(=O)c1ccccc1-n1cnc(Cn2nc(-c3ccc(Cl)cc3)n(C[C@H](O)C(F)(F)F)c2=O)n1 [Example 323, 2-[3-({3-(4-Chlorophenyl)-5-oxo-4-[(2S)-3,3,3-trifluoro-2-hydroxypropyl]-4,5-dihydro-1H-1,2,4-triazol-1-yl}methyl)-1H-1,2,4-triazol-1-yl]-N-(2-methylphenyl)benzamide] |
|  | 0.0635 | 46.5 | 2.95 | NC(=O)[C@H]1CCCN1C(=O)c1ccccc1-n1cnc(Cn2nc(-c3ccc(Cl)cc3)n(C[C@H](O)C(F)(F)F)c2=O)n1 [Example 194, 1-{2-[3-({3-(4-Chlorophenyl)-5-oxo-4-[(2S)-3,3,3-trifluoro-2-hydroxypropyl]-4,5-dihydro-1H-1,2,4-triazol-1-yl}methyl)-1H-1,2,4-triazol-1-yl]benzoyl}-D-prolinamide] |
|  | 0.019 | 12.6 | 0.24 | CC1CC1C(=O)Nc1ncccc1-n1cnc(Cn2nc(-c3ccc(Cl)cc3)n(C[C@H](O)C(F)(F)F)c2=O)n1 (stereo partly drawn) [Example 114] |
|  | 0.0025 | 30.8 | 0.077 | CCN(C)C(=O)c1ccccc1-n1cnc(Cn2nc(-c3ccc(Cl)cc3)n(C[C@H](O)C(F)(F)F)c2=O)n1 [Example 295, 2-[3-({3-(4-Chlorophenyl)-5-oxo-4-[(2S)-3,3,3-trifluoro-2-hydroxypropyl]-4,5-dihydro-1H-1,2,4-triazol-1-yl}methyl)-1H-1,2,4-triazol-1-yl]-N-ethyl-N-methylbenzamide] |

The next lines start with the compound.

| SMILES | IC50 [1] [µM] | IC50 [2] [µM] | ratio IC50 hV2/hV1a [2] | IC50 ([1]; 3 hours) [µM] |
| --- | --- | --- | --- | --- |
| CC1(C)COCCN1C(=O)c1ncccc1-n1cnc(Cn2nc(-c3ccc(Cl)cc3)n(C[C@@H](O)C(F)(F)F)c2=O)n1 [Example 475, 5-(4-Chlorophenyl)-2-[(1-{2-[(3,3-dimethylmorpholin-4-yl)carbonyl]pyridin-3-yl}-1H-1,2,4-triazol-3-yl)methyl]-4-[(2R)-3,3,3-trifluoro-2-hydroxypropyl]-2,4-dihydro-3H-1,2,4-triazol-3-one] | 66 | 0.09 | 733.3 |  |
| CC1(NC(=O)c2cccnc2-n2cnc(Cn3nc(-c4ccc(Cl)cc4)n(C[C@H](O)C(F)(F)F)c3=O)n2)CC1 [Example 505, 2-[3-({3-(4-Chlorophenyl)-5-oxo-4-[(2S)-3,3,3-trifluoro-2-hydroxypropyl]-4,5-dihydro-1H-1,2,4-triazol-1-yl}methyl)-1H-1,2,4-triazol-1-yl]-N-(1-methylcyclopropyl)pyridine-3-carboxamide] | 0.055 | 0.00105 | 52.6 |  |
| O=C(c1ncccc1-n1cnc(Cn2nc(-c3ccc(Cl)cc3)n(C[C@@H](O)C(F)(F)F)c2=O)n1)N1CCC(C(F)(F)F)C1 (mixture of isomers) [Example 480, 5-(4-Chlorophenyl)-4-[(2R)-3,3,3-trifluoro-2-hydroxypropyl]-2-{[1-(2-{[3-(trifluoromethyl)pyrrolidin-1-yl]carbonyl}pyridin-3-yl)-1H-1,2,4-triazol-3-yl]methyl}-2,4-dihydro-3H-1,2,4-triazol-3-one] | 32 | 0.46 | 69.6 |  |
| O=C(Nc1cccnc1-n1cnc(Cn2nc(-c3ccc(Cl)cc3)n(C[C@H](O)C(F)(F)F)c2=O)n1)OCC(F)(F)F [Example 62, 2,2,2-trifluoroethyl {2-[3-({3-(4-chlorophenyl)-5-oxo-4-[(2S)-3,3,3-trifluoro-2-hydroxypropyl]-4,5-dihydro-1H-1,2,4-triazol-1-yl}methyl)-1H-1,2,4-triazol-1-yl]pyridin-3-yl}carbamate] |  | 0.0195 | 49.1 | 0.957 |
| O=C(c1ncccc1-n1cnc(Cn2nc(-c3ccc(Cl)cc3)n(C[C@@H](O)C(F)(F)F)c2=O)n1)N1CCC[C@@H]1C(F)(F)F [Example 478, 5-(4-Chlorophenyl)-4-[(2R)-3,3,3-trifluoro-2-hydroxypropyl]-2-{[1-(2-{[(2R)-2-(trifluoromethyl)pyrrolidin-1-yl]carbonyl}pyridin-3-yl)-1H-1,2,4-triazol-3-yl]methyl}-2,4-dihydro-3H-1,2,4-triazol-3-one] | 7.8 | 0.29 | 26.9 |  |
| O=C(NCC(F)(F)F)Nc1cccnc1-n1cnc(Cn2nc(-c3ccc(Cl)cc3)n(C[C@H](O)C(F)(F)F)c2=O)n1 [Example 63, 1-{2-[3-({3-(4-Chlorophenyl)-5-oxo-4-[(2S)-3,3,3-trifluoro-2-hydroxypropyl]-4,5-dihydro-1H-1,2,4-triazol-1-yl}methyl)-1H-1,2,4-triazol-1-yl]pyridin-3-yl}-3-(2,2,2-trifluoroethyl)urea] |  | 0.00315 | 366.1 | 1.15 |
| O=C(NC1CC1)c1ccncc1-n1nc(Cn2nc(-c3ccc(Cl)cc3)n(C[C@H](O)C(F)(F)F)c2=O)nc1C(=O)N1CCS(=O)(=O)CC1 [Example 520, 3-{3-({3-(4-Chlorophenyl)-5-oxo-4-[(2S)-3,3,3-trifluoro-2-hydroxypropyl]-4,5-dihydro-1H-1,2,4-triazol-1-yl}methyl)-5-[(1,1-dioxidothiomorpholin-4-yl)carbonyl]-1H-1,2,4-triazol-1-yl}-N-cyclopropylpyridine-4-carboxamide] | 0.665 | 0.295 | 2.3 |  |
| O=C(NC1CC(F)(F)C1)c1cccc(Cl)c1-n1cnc(Cn2nc(-c3ccc(Cl)cc3)n(C[C@H](O)C(F)(F)F)c2=O)n1 [Example 376, 3-Chloro-2-[3-({3-(4-chlorophenyl)-5-oxo-4-[(2S)-3,3,3-trifluoro-2-hydroxypropyl]-4,5-dihydro-1H-1,2,4-triazol-1-yl}methyl)-1H-1,2,4-triazol-1-yl]-N-(3,3-difluorocyclobutyl)benzamide] |  | 0.0735 | 7.8 | 0.57 |
| O=C1CN(C(=O)c2nc(Cn3nc(-c4ccc(Cl)cc4)n(C[C@H](O)C(F)(F)F)c3=O)nn2-c2cnccc2C(=O)NC2CC2)CCN1 [Example 514, 3-{3-({3-(4-Chlorophenyl)-5-oxo-4-[(2S)-3,3,3-trifluoro-2-hydroxypropyl]-4,5-dihydro-1H-1,2,4-triazol-1-yl}methyl)-5-[(3-oxopiperazin-1-yl)carbonyl]-1H-1,2,4-triazol-1-yl}-N-cyclopropylpyridine-4-carboxamide] | 1.25 | 0.34 | 3.7 |  |
| O=C(c1ncccc1-n1cnc(Cn2nc(-c3ccc(Cl)cc3)n(C[C@@H](O)C(F)(F)F)c2=O)n1)N1CCC[C@H]1C(F)(F)F [Example 477, 5-(4-Chlorophenyl)-4-[(2R)-3,3,3-trifluoro-2-hydroxypropyl]-2-{[1-(2-{[(2S)-2-(trifluoromethyl)pyrrolidin-1-yl]carbonyl}pyridin-3-yl)-1H-1,2,4-triazol-3-yl]methyl}-2,4-dihydro-3H-1,2,4-triazol-3-one] | 11 | 0.46 | 23.9 |  |
| O=C(NCC(F)(F)F)c1cccc(Cl)c1-n1cnc(Cn2nc(-c3ccc(Cl)cc3)n(C[C@H](O)C(F)(F)F)c2=O)n1 [Example 365, 3-Chloro-2-[3-({3-(4-chlorophenyl)-5-oxo-4-[(2S)-3,3,3-trifluoro-2-hydroxypropyl]-4,5-dihydro-1H-1,2,4-triazol-1-yl}methyl)-1H-1,2,4-triazol-1-yl]-N-(2,2,2-trifluoroethyl)benzamide] |  | 0.03 | 30.7 | 0.92 |
| O=C(Nc1ncccc1-n1cnc(Cn2nc(-c3ccc(Cl)cc3)n(C[C@H](O)C(F)(F)F)c2=O)n1)C1CCCCO1 (stereo partly drawn) [Example 166] |  | 0.039 | 51.3 | 2 |
| O=C(CC1CCCO1)Nc1ncccc1-n1cnc(Cn2nc(-c3ccc(Cl)cc3)n(C[C@H](O)C(F)(F)F)c2=O)n1 (stereo partly drawn) [Example 141] |  | 0.032 | 33.3 | 1.06 |
| O=C(Nc1cccnc1-n1cnc(Cn2nc(-c3ccc(Cl)cc3)n(C[C@H](O)C(F)(F)F)c2=O)n1)C1CC1F (single isomer, unassigned) [Example 60] |  | 0.00425 | 208.2 | 0.885 |
